Source: patent publication US9468650B2, “Inhibition of endosomal toll-like receptor activation” (DUKE UNIVERSITY, priority 2009, dated 2016)

Legend:
mammalian cell lines = settings: cited from earlier work
[1] = mouse, in vivo, 40 mg/kg
TLR3 = test: Cytokine production (TNFα, IL-6) of murine macrophage Raw264.7 stimulated with poly I:C; format: cell-based; settings: TNFα and IL-6 by ELISA
[2] = mouse, in vivo; cited from earlier work

Substance	cytotoxicity (remark) (mammalian cell lines)	concentration inducing over 50% cell death (Raw264.7 cells)	adverse effects on viability of mice [1]	further results
Poly(allylamine) [PAL]	1. Commercially available. 2. Highly positive charged 3. Low toxicity.	–	–	–
Polyethyleneimine [PEI]	3. high cytotoxicity.	–	–	–
polyamidoamine dendrimer, 1,4-diaminobutane core, G3 [PAMAM]	–	about 160 μg/ml	no adverse effects on viability	–
protamine [reference compound]	–	~280 µg/mL	–	effect on poly I:C (TLR3 ligand) induced inflammatory cytokine production (TLR3): did not block but significantly enhanced
β-cyclodextrin-containing polycation [CDP]	–	–	no adverse effects on viability	tolerability on macrophages (Raw264.7 cells): well tolerated; LD50 [2]: 200 mg/kg
